Consider six compounds from patent publication US20080260842A1, “PERMEATION ENHANCING COMPOSITIONS FOR ANTICHOLINERGIC AGENTS” (priority 2004, published 2008).

The nature of series [1]: Dose-ranging pharmacokinetic study of transdermal oxybutynin gel in healthy volunteers (Example 18). To be noted: after 20 days (steady-state), mean ± SD, N = 16. The procedure: The study was an open-label, randomized, parallel, three-treatment, dose-ranging pharmacokinetic study. […] The subjects were aged 19 to 53 (mean 35) years.
The oxybutynin transdermal gel formulation contained 3% w/w of oxybutynin base in a hydroalcoholic non-occlusive matrix including the unique combination of permeation enhancers of the present invention. Three different doses of the gel were administered topically once a day during 20 consecutive days: treatment A consisted in a daily amount of 1.4 g applied gel, corresponding to 42 mg oxybutynin; treatment B consisted in a daily amount of 2.0 g applied gel, corresponding to 60 mg oxybutynin; and treatment C consisted in a daily amount of 2.8 g applied gel, corresponding to 84 mg oxybutynin.

Series [2] can be described thus: Pilot pharmacokinetic study of an oxybutynin gel formulation in healthy volunteers (Example 17). To be noted: Treatment A (60 mg/day gel), 156 h, individual subjects.
Method: (§1) Subjects were excluded on the basis of any preexisting condition or finding on the prestudy examination that would place them at risk during the study. Written informed consent was obtained from each subject before participating in any study-related procedures after discussion and explanation of the study.
(§2) Treatments were administered according to an open-label, multiple-dose, escalating dose titration pilot pharmacokinetic study and included a transdermal oxybutynin gel. Steady-state conditions were achieved by administering daily doses for 7 days. Subjects participated in 2 study periods during which the test medication (a transdermal gel) was applied once daily. 2 g of the gel (corresponding to a dose of 60 mg of oxybutynin) was applied daily during the first study period (Treatment A), then 1 g (corresponding to a dose of 30 mg of oxybutynin) during the second study period (Treatment B). A wash-out period of 7 days was observed between the two study periods. Both dosages were tested on same subjects. The design allows comparison between different dosages of the same formulation within the subject and removes inter-subject variability.
(§3) The main objective of this study was to assess the pharmacokinetic parameters of an oxybutynin gel formulation, administered in two different doses, administering the product in 8 healthy female volunteers.
(§4) The secondary objective of this study was to record safety parameters such as adverse events, skin tolerance, vital signs, e.g., blood pressure and heart rate.
For series [3] the following is noted: female, human, in vivo.
Method: as §1, §2, §3, §4
The conditions of series [4]: both, human, in vivo.
The nature of a further series: clinical. The note with it: both, human, in vivo, 84 mg, Tmax median.
A further series deals with detrusor muscle. The note with it: cited from earlier work.
Series [5] in a line: Pharmacokinetic study of R/S OXY and DEO enantiomers, transdermal oxybutynin gel (Example 20). Type of series: in vivo, human. To be noted: single-dose topical 84 mg OXY gel, abdominal area, normalized to 84 mg, mean ± SD, N = 10. The procedure:
Ten healthy volunteers (Asian Indians, 60% female) aged 18 to 35 (mean 29) years old were treated with 2.8 g of a formulation of the present invention containing 3% w/w of OXY base (84 mg OXY), administered topically as a single dose on the abdomen (700 cm^2).

Like-named read-outs stand apart in the source and are kept apart here.

Turning to `CCNCC#CCOC(=O)C(O)(c1ccccc1)C1CCCCC1` (centres unmarked) [N-desethyloxybutynin], the Cav in series [1] (Treatment A: 42 mg oxybutynin daily) was found to be 3.0 ± 1.3 ng/mL; in series [1] (Treatment B: 60 mg oxybutynin daily), 4.0 ± 2.1 ng/mL; in series [1] (Treatment C: 84 mg oxybutynin daily), 7.0 ± 4.0 ng/mL. Moreover, the N-desethyloxybutynin concentration in series [2] amounted to 11.970 ng/L.

Consider `CCN(CC)CC#CCOC(=O)C(O)(c1ccccc1)C1CCCCC1` (centres unmarked) [Oxybutynin], for which the “Treatment A/Treatment B Ratio - Oxybutynin” value in series [3] came to 1.93. Also, the “Treatment A/Treatment B Ratio - Oxybutynin” value in series [3] (0 h) is 0. Also, in series [4], the “time to reach plasmatic levels of about 1 to 4 ng/ml” value is “about 2 hours”, the “time to reach plasmatic levels of about 2 to 4 ng/ml” value was “less than 4 hours”, the “time to reach plasmatic levels of about 3 to about 4 ng/ml” value was “less than 6 hours” and the “time up to which plasmatic levels of about 1 to 4 ng/ml are sustained” value is reported as “at least 72 hours”. In series [4], the “time up to which plasmatic levels of about 2 to 4 ng/ml are sustained” value is on record as “at least 48 hours” and the “time up to which plasmatic levels of about 3 to about 4 ng/ml are sustained” value is reported as “at least 36 hours”. The Tmax (usually the time from dosing to the highest level) in “clinical” turned out to be 24 h. The “antispasmodic activity relative to atropine” value in the series on detrusor muscle was “four to ten times”. Besides, the “anticholinergic activity relative to atropine” value with detrusor muscle (detrusor muscle, effect observed in rabbits) is listed as “one-fifth”.

Regarding `CCNCC#CCOC(=O)[C@](O)(c1ccccc1)C1CCCCC1` [R-DEX], in series [5], the AUC0-120 amounted to 269.5 ± 132.8 ng·h/mL and the Cmax (in general, the maximum level reached in the sampled fluid or tissue) worked out at 6.3 ng/mL.

In series [5], `CCN(CC)CC#CCOC(=O)[C@](O)(c1ccccc1)C1CCCCC1` [R-OXY] had an AUC0-120 of 151.1 ± 56.0 ng·h/mL and a Cmax of 3.6 ng/mL.

Regarding `CCNCC#CCOC(=O)[C@@](O)(c1ccccc1)C1CCCCC1` [S-DEX], in series [5], the AUC0-120 was determined as 285.5 ± 152.9 ng·h/mL and the maximum concentration (Cmax) is 6.9 ± 3.8 ng/mL.

For the compound `CCN(CC)CC#CCOC(=O)[C@@](O)(c1ccccc1)C1CCCCC1` [S-OXY], in series [5], the AUC0-120 was 246.0 ± 96.7 ng·h/mL and the Cmax was 5.8 ± 2.6 ng/mL.
